Counter-ions that a name gives are not always drawn.
Key:
[1] = system: GLUT4; experiment: GLUT4 carbonylation (K264-HNE adduct) in 3T3-L1 cells overexpressing GLUT4, MRM; assay type: cell-based; conditions: 20 μM for 4 hour, FIG. 1A-1B
Method: A GLUT4-SNAP fusion construct was generated. 3T3-L1 adipocytes were then retrovirally transduced with the construct to overexpress the GLUT4-SNAP protein. Twenty-four hours after the transduction, the cells were treated with and without 20 μM of 4-HNE for an additional 4 hours. This 4-HNE dose was chosen because it was similar to the physiological levels and was non-toxic. In order to identify and quantitate GLUT4 carbonylation (K264 NHE-adduct or R265 and R246 glutamic semialdehyde adducts), a mass spectroscopy-based multiple reaction monitoring (MRM) method was developed and validated.

[2] = system: 3T3-L1 adipocytes; experiment: Effect of 4-HNE and H2O2 on insulin-induced glucose uptake by 3T3-L1 adipocytes; assay type: cell-based, mouse; conditions: 500 μM for 4 hour, then 100 nM insulin 60 minutes; FIG. 2
Method: 3T3-L1 adipocytes (1×10^6) were treated with either 500 μM of 4-HNE or H2O2 or combination of both for 4 hour and were then stimulated with 100 nM insulin for 60 minutes. The glucose uptake was measured by a specific MRM method.

[3] = system: 3T3-L1 adipocytes; experiment: Restoring glucose uptake in insulin-stimulated 3T3-L1 cells exposed to 4-HNE and H2O2 (FIG. 13); assay type: cell-based, mouse; conditions: 10 μM pretreatment 12 hours, then 4HNE and H2O2 4 hours; for glucose uptake impairment induced by 4-HNE and H2O2: FIG. 13
Method: Insulin-stimulated 3T3-L1 adipocytes were pretreated with the drug (S)-2-amino-6-((3-aminopropyl)amino)hexanoic acid dihydrochloride (10 μM) for 12 hours followed by exposure to 4HNE and H2O2 for an additional 4 hours. The amounts of glucose taken up by the 3T3-L1 adipocytes were measured by the MRM methods described above. The results in FIG. 13 show the effect of the drug in restoring glucose uptake in insulin-stimulated 3T3-L1 cells exposed to 4-HNE and H2O2: Control cells, no insulin (C− No Ins); control cells, with insulin (C+ Ins); 4HNE+H2O2-treated cells (4HNE/H2O2) and cells treated with drug+4HNE+H2O2 (“APL”).
Insulin-stimulated 3T3-L1 adipocytes were pretreated with the drug (S)-2-amino-5-((6-aminohexyl)amino)pentanoic acid dihydrochloride (10 μM) for 12 hours followed by exposure to 4HNE and H2O2 for an additional 4 hours. The amounts of glucose taken up by the 3T3-L1 adipocytes were measured by the MRM methods described above. FIG. 13 includes the results: cells treated with (S)-2-amino-5-((6-aminohexyl)amino)pentanoic acid trihydrochloride (MC-180351).
Insulin-stimulated 3T3-L1 adipocytes were pretreated with the drug (S)-2-amino-5-(([…])amino)pentanoic acid dihydrochloride (10 μM) for 12 hours followed by exposure to 4HNE and H2O2 for an additional 4 hours. The amounts of glucose taken up by the 3T3-L1 adipocytes were measured by the MRM methods described above. FIG. 13 includes the results: cells treated with (S)-2-amino-5-((5-aminopentyl)amino)pentanoic acid trihydrochloride (MC-180352).

## CCCCCC(O)/C=C/C=O (stereo not shown) [Example 4-HNE, 4-hydroxynonenal]
[1]
  formation of K264-HNE GLUT4 adduct: induced the formation of the K264-HNE adduct
[2]
  reduction of glucose uptake: 32%

## OO [Example H2O2, H2O2]
[2]
  reduction of glucose uptake: 66%

## NCCCCCCNCCC[C@H](N)C(=O)O [MC-180351, (S)-2-amino-5-((6-aminohexyl)amino)pentanoic acid trihydrochloride]
[3]
  GLUT4 carbonylations: reduce GLUT4 carbonylations
  glucose uptake impairment induced by 4-HNE and H2O2: prevent glucose uptake impairment induced by 4-HNE and H2O2

## NCCCCCNCCC[C@H](N)C(=O)O [MC-180352, (S)-2-amino-5-((5-aminopentyl)amino)pentanoic acid trihydrochloride]
[3]
  GLUT4 carbonylations: reduce GLUT4 carbonylations
  glucose uptake impairment induced by 4-HNE and H2O2: prevent glucose uptake impairment induced by 4-HNE and H2O2

From patent US11596615B2, “Compositions and methods for treatment of insulin resistance” (Temple University—Of The Commonwealth System Of Higher …, priority 2016, dated 2023)
